Assay results reported in ChEMBL document CHEMBL1144614, “Darpones and water-soluble aminobutoxylated darpone derivatives are distinguished by matrix COMPARE analysis” (Bioorg Med Chem Lett, 2007).

Tests used:
[1] = test system: HCT-15; test: Growth inhibition of HCT15 cells; type: functional; conditions: Homo sapiens
[2] = Solubility in phosphate buffer at pH 4.5; type: physicochemical

| GI50 [1] | solubility [2] | Structure (SMILES) |
| --- | --- | --- |
| 1900 nM | – | COc1ccc(-c2cc(-c3cccc(Cl)c3)nc3c2CC(=O)Nc2ccccc2-3)cc1 |
| 2700 nM | – | O=C1Cc2c(-c3ccccc3)cc(-c3cccc(Cl)c3)nc2-c2ccccc2N1 |
| > 100000 nM | – | COc1ccc2c(c1)NC(=O)Cc1c(-c3ccccc3)cc(-c3cccc(Cl)c3)nc1-2 |
| 3000 nM | – | COc1ccc(-c2cc(-c3ccccc3)c3c(n2)-c2ccccc2NC(=O)C3)cc1Cl |
| 13800 nM | < 5 µg/mL | Cl.NCCCCOc1ccc(-c2cc(-c3ccccc3)c3c(n2)-c2ccccc2NC(=O)C3)cc1Cl |
| 870 nM | < 5 µg/mL | CN1CCN(CCCCOc2ccc(-c3cc(-c4ccccc4)c4c(n3)-c3ccccc3NC(=O)C4)cc2Cl)CC1.Cl.Cl |
| 810 nM | > 500 µg/mL | CN1CCN(CCCCOc2ccc3c(c2)NC(=O)Cc2c(-c4ccccc4)cc(-c4cccc(Cl)c4)nc2-3)CC1.Cl.Cl |
| 910 nM | > 500 µg/mL | CN1CCN(CCCCOc2ccc(-c3cc(-c4cccc(Cl)c4)nc4c3CC(=O)Nc3ccccc3-4)cc2)CC1.Cl.Cl |
| 1200 nM | > 500 µg/mL | Cl.O=C1Cc2c(-c3ccc(OCCCCN4CCOCC4)cc3)cc(-c3cccc(Cl)c3)nc2-c2ccccc2N1 |
| 2300 nM | 5 µg/mL | Cl.O=C1Cc2c(-c3ccccc3)cc(-c3ccc(OCCCCN4CCOCC4)c(Cl)c3)nc2-c2ccccc2N1 |
| 6600 nM | < 5 µg/mL | Cl.NCCCCOc1ccc(-c2cc(-c3cccc(Cl)c3)nc3c2CC(=O)Nc2ccccc2-3)cc1 |
| 1600 nM | > 500 µg/mL | Cl.O=C1Cc2c(-c3ccccc3)cc(-c3cccc(Cl)c3)nc2-c2ccc(OCCCCN3CCOCC3)cc2N1 |
| 1800 nM | < 5 µg/mL | Cl.NCCCCOc1ccc2c(c1)NC(=O)Cc1c(-c3ccccc3)cc(-c3cccc(Cl)c3)nc1-2 |
